The results in this text go back to patent publication US20260216193A1, “TREATMENT OF HAND ECZEMA” (LEO Pharma A/S, priority 2016, published 2026).

The series relates to subjects with chronic hand eczema. The series is described as follows: phase 2a clinical trial, twice daily topical ointment 30 mg/g vs ointment vehicle for 8 weeks. The series is classed as in vivo, human. The procedure:
The invention provides a clinical trial to compare efficacy of twice daily topical ointment with 30 mg/g of the compound of formula (I), with an ointment vehicle for 8 weeks in the treatment of hand eczema. The compound of formula (I) is formulated in an ointment containing the active compound in 30 mg/g, white soft paraffin, hard paraffin and squalane. Dosis range will be a thin layer covering the affected areas on the hands corresponding to 1.7 mg/cm^2 of the compound of formula (I). The primary efficacy parameter for ‘treatment success’ is Physician's Global Assessment of disease severity (PGA). […] Patient's Global Assessment of disease severity (PaGA) was recorded at the same visits. • 1. […] In overall good health including well controlled diseases (e.g. hypertension, diabetes and thyroid disease) as determined by medical history, physical examination, electrocardiogram (ECG), vital signs (blood pressure, heart rate and body temperature) and clinical laboratory evaluation. […]

Entries after “also recorded” stand apart in the source; their conditions may differ.

Take `C[C@H]1CN(C(=O)CC#N)[C@]12CCN(c1ncnc3[nH]ccc13)C2` [compound of formula (I), 3-[(3S,4R)-3-methyl-6-(7H-pyrrolo[2,3-d]pyrimidin-4-yl)-1,6-diazaspiro[3.4]octan-1-yl]-3-oxopropanenitrile]: the ““treatment success” according to Physician's Global Assessment of disease severity (PGA)” value (ointment 30 mg/g twice daily topical vs ointment vehicle, up to 8 weeks, prespecified analysis at week 8, subjects with chronic hand eczema) is given as “resulted in “treatment success”; also recorded: statistically significant (P=0.009) difference in favor”. The safety and tolerability result (ointment 30 mg/g, twice daily topical, patients with hand eczema) is “safe and well tolerated”.
